US8741892B2, “Compounds” (Boehringer Ingelheim International GmbH, priority 2011, dated 2014)

These molecules were tested against T1, human recombinant mGluR5 (Homo sapiens, UniProt P41594) (assay: positive modulation of mGluR5, calcium based FLIPR assay). Settings: HEK 293 cell line expressing human recombinant mGluR5; EC50 of the modulation from peak Ca fluorescence signal after glutamate at approx. 5% basal stimulation.
T1 construct: expressed in transfected cells; host or cells: HEK 293
In short: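 HEK 293 cells expressing human recombinant mGluR5, Calcium-4 dye-loaded in Ringer solution pH 7.4. Compound (1% DMSO final) preincubated 5 min, then glutamate at ~5% of maximal effect added; peak Ca2+ fluorescence gives EC50 by nonlinear regression, normalized to DMSO (100%) and 10 μM CDPPB (200%) controls.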

T1 sequence (P41594 21-1212): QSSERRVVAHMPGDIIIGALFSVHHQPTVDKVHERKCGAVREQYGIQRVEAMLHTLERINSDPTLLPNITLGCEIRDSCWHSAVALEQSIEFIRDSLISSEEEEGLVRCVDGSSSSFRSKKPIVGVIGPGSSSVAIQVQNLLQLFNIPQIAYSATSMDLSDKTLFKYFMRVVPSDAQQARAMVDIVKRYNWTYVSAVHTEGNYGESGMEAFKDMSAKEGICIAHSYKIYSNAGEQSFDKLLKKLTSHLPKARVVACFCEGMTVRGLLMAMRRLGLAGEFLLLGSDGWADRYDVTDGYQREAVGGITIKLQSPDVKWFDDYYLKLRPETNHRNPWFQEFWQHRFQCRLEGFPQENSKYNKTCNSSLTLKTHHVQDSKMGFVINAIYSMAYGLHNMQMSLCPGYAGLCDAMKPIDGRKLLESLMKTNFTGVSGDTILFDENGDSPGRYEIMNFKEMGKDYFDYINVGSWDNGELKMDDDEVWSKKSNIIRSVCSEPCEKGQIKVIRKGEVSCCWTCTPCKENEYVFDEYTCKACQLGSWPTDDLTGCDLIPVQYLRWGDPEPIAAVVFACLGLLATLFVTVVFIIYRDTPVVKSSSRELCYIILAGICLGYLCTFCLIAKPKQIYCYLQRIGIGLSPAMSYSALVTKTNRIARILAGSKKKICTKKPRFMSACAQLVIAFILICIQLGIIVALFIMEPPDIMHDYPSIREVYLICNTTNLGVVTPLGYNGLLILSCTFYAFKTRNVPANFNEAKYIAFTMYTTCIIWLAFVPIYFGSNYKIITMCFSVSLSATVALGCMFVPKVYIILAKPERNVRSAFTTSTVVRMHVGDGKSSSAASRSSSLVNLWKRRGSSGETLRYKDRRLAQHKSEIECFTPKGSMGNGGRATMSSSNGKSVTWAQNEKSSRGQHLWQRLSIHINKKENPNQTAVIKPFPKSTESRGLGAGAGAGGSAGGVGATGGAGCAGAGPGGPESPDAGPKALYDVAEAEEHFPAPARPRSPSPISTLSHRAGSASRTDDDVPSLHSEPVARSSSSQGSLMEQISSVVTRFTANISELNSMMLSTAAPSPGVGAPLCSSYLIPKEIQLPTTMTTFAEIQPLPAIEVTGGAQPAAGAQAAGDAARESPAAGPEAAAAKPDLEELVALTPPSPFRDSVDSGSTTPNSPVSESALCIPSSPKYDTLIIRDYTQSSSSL

Row | Compound | EC50 [nM]
1 | COCCCc1cc(-c2ccc(F)c(C)c2)nn1CC(=O)N1CCc2nc(C)sc2CC1 [Example 7.02.103] | 34
2 | CCc1cc(-c2ccc(F)c(C)c2)nn1CC(=O)N1CCC(c2cccc(OC)c2)CC1 [Example 7.02.147] | 572
3 | CCc1cc(-c2ccc(C)c(F)c2)nn1CC(=O)N1CCc2nc(C)sc2CC1 [Example 7.02.238] | 146
4 | Cc1cc(-c2cc(-c3ccccc3)n(CC(=O)N3CCc4cc(=O)n(C)nc4CC3)n2)ccc1F [Example 7.01.081] | 30
5 | Cc1nc2n(n1)CCN(C(=O)Cn1nc(-c3ccc(F)c(C)c3)cc1-c1ccccc1)CC2 [Example 7.02.231] | 19
6 | Cc1coc(N2CCN(C(=O)Cn3nc(-c4ccc(F)c(C)c4)cc3-c3ccccc3)CC2)n1 [Example 7.02.165] | 18
7 | Cc1nc2c(o1)CCN(C(=O)Cn1nc(-c3ccc(F)c(C)c3)cc1-c1ccccc1)CC2 [Example 7.02.106] | 10
8 | COc1cc(-c2cc(C(C)C)n(CC(=O)N3CCc4nc(C)sc4CC3)n2)ccc1F [Example 7.02.051] | 190
9 | O=C(Cn1nc(-c2ccccc2)cc1-c1ccccc1)N1CCN(c2nccc3sccc23)CC1 [Example 7.01.048] | 573
10 | O=C(Cn1nc(-c2ccccc2)cc1-c1ccccc1)N1CCC(c2ncc(Cl)cn2)CC1 [Example 7.01.001, 2-(3,5-diphenyl-pyrazol-1-yl)-1-(4-(5-chloro-pyrimidin-2-yl)-1-piperidinyl)-ethanon] | 1430
11 | Cc1cc(-c2cc(-c3ccccc3)n(CC(=O)N3CCN(c4nccs4)CC3)n2)ccc1F [Example 7.02.216] | 6
12 | CCc1cccc(-c2cc(CC)n(CC(=O)N3Cc4nc(C)sc4C3)n2)c1 [Example 7.02.125] | 253
13 | Cc1cc(-c2cc(-c3ccccc3)n(CC(=O)N3CCC(c4nnc(C(C)C)o4)CC3)n2)ccc1F [Example 7.02.017] | 68
14 | Cc1cc(-c2cc(-c3ccccc3)n(CC(=O)N3CCN(C(=O)Oc4ccccc4)CC3)n2)ccc1F [Example 7.02.242] | 45
15 | CCc1cc(-c2ccc(F)c(C)c2)nn1CC(=O)N1CCC(c2ncc(C)s2)CC1 [Example 7.02.141] | 138
16 | Cc1cc(-c2cc(-c3ccccc3)n(CC(=O)N3CCc4ncc(C)n4CC3)n2)ccc1F [Example 7.01.086] | 274
17 | CCCc1cc(-c2ccc(F)c(C)c2)nn1CC(=O)N1CCc2nc(N)sc2CC1 [Example 7.02.033] | 29
18 | Cc1nc2c(o1)CN(C(=O)Cn1nc(-c3cc(C)c(F)cn3)cc1-c1ccccc1)C2 [Example 7.02.177] | 111
19 | Cc1csc(N2CCN(C(=O)Cn3nc(-c4ccc(F)c(C)c4)cc3-c3ccccc3)CC2)n1 [Example 7.02.158] | 116
20 | CCc1nc2c(o1)CN(C(=O)Cn1nc(-c3ccc(F)c(C)c3)cc1-c1ccccc1)C2 [Example 7.02.255] | 7
21 | Cc1cc(-c2cc(C3CC3)n(CC(=O)N3CCc4nc(N)sc4CC3)n2)ccc1F [Example 7.02.036] | 136
22 | Cc1cnc(C2=CCN(C(=O)Cn3nc(-c4cccc(C#N)c4)cc3-c3ccccc3)CC2)o1 [Example 7.02.188] | 19
23 | Cc1cc(-c2cc(CC(C)C)n(CC(=O)N3CCc4nc(N)sc4CC3)n2)ccc1F [Example 7.02.120] | 21
24 | CC(C)c1ncc2c(n1)CCN(C(=O)Cn1nc(-c3ccccc3)cc1-c1ccccc1)C2 [Example 7.01.029] | 796
25 | Cc1nnc(N2CCN(C(=O)Cn3nc(-c4ccc(OC(F)F)cc4)cc3-c3ccccc3)CC2)o1 [Example 7.02.225] | 17
26 | Cc1cc(-c2cc(-c3ccccc3)n(CC(=O)N3CCc4ccsc4CC3)n2)ccc1F [Example 7.02.130] | 57
27 | CCc1cc(-c2ccc(F)c(C)c2)nn1CC(=O)N1CCN(c2cccc(OC)c2)C(=O)C1 [Example 7.02.027] | 58
28 | CCc1nnc(C2CCN(C(=O)Cn3nc(-c4ccc(F)c(C)c4)cc3CC)CC2)o1 [Example 7.02.219] | 209
29 | Cc1nc2c(s1)CN(C(=O)Cn1nc(-c3cc(C)c(F)cn3)cc1-c1ccccc1)C2 [Example 7.02.176] | 221
